# Assay results reported in patent US8067369B2, “Protection of the retina against laser injury by NAP and related peptides” (Ramot at Tel-Aviv University, priority 2006, dated 2011).
# No end group written: not given here.
# Experiments:
# [1] = tested on: laser-induced retinal damage; experiment: Argon laser retinal lesions in rats, histopathologic and morphometric evaluation; format: in vivo, rat
# Description: Pigmented DA rats (strain DA/Ola/Hsd, Harlan OCAL Ltd., Blackthorn Bicester Oxon, England; raised in Tel-Aviv University animal house), 90 days old, were used for the experiments. The posterior segment of the eye of this strain has a uniform pigmentation, making it particularly useful for retinal laser injury production. The animals were fed ad libitum with a normal laboratory diet and maintained on a 12-h light/dark cycle. They were anesthetized by intraperitoneal injections of ketamine (40 mg/kg) and xylasine (8 mg/kg) before each experimental procedure.
# After dilatation of the pupil with sterile drops of Topicamid 0.5% (Midramid, Fisher), a contact lens, specially crafted to fit a rat eye for retinal laser irradiation, was attached to the cornea with 2.5% hydroxypropyl methylcellulose. Six laser retinal lesions were produced in each eye of each of the anesthetized (ketamine (40 mg/kg) and xylasine (8 mg/kg)) rats by argon laser (Novus 2000 Coherent, CA) two disc diameters away from the optic disc. The laser beam characteristics were 514 & […], 200 μm, 0.1 W, 0.05 second. These laser settings were found in previous studies to result in lesions of a uniform size and configuration, involving mainly the outer retinal layers.
# The animals of the experimental groups I and III underwent systemic intravenous injection of NAP or saline immediately after the laser photocoagulation, NAP was injected in the amount of 60 μg per animal (about 280-300 μg/kg) in a volume of 0.5 ml of saline. The animals of the control group got an injection of 0.5 ml of saline. The injections were performed in the femoral vein of the right leg of each animal after the vessel was uncovered and isolated in situ. The wound was sewed up after the injection with surgical silk.
# The animals of the experimental groups II and IV underwent NAP or saline injection immediately after the laser photocoagulation. Each eye of each anesthetized rat was punctured with a 30-gauge needle of a Hamilton syringe at the temporal posterior part of the retina. Then, 5 μl of NAP saline solution at a concentration of 2.5 pg/μl was injected into the vitreous body of the experimental group. The same amount of saline (5 μl) was injected intravitreally in the animals of the control groups. All of the procedures were controlled visually via a surgical microscope.
# The effect of treatment in all groups was evaluated at three time points: 3, 20, and 60 days after the primary injury (n=6 at each time point in each group). The animals were euthanized by a lethal dose of pentobarbitone and their eyes enucleated and fixed in 2% glutaraldehyde. Using a surgical microscope, the posterior segment of the fixed eye was dissected into tissue samples, each incorporating one retinal laser lesion. The samples were embedded in epoxy resin and the blocks sectioned serially (1 μm) with an ultramicrotome and stained with toluidine blue.
# The microscopic images were digitalized by SmartCapture VP software (Digital Scientific, USA) and enhanced by IPLab software (Scanalytics, USA). Then the images were segmented for photoreceptor clarification by IPLab software (Scanalytics, USA) and the photoreceptors were counted.
# Morphometric measurements were performed on each lesion in order to evaluate the severity of the argon laser injury. The borders of the lesion area were established at the most distant point from the middle of the lesion where the cytoarchitecture changes in the pigment epithelium, outer nuclear, inner nuclear, or ganglion cell layers of the retina could be distinguished. The measurements performed were: 1) Diameter of the whole lesion, 2) Cell count in the outer nuclear layer of the whole lesion area, and 3) Cell count in the outer nuclear layer at the 100 μm center of the lesion
# In order to evaluate the extent of photoreceptor cell loss, results were compared to the cell density in the intact regions of the outer nuclear retinal layer located 100 μm peripherally from the edges of the lesion. […]
# [2] = rabbit, in vivo
# Description: Three albino rabbits (each three months old) were used. One animal at a time was anesthetized using Ketamin (40 mg/kg) and Xylazine (8 mg/kg). After the animals were fully anesthetized, a drop of radioactive drug—^14C-NAPVSIPQ (SEQ ID NO:24) (50 microliter; 1.5×10^6 dpm; 37 mCi/mmol; 1 microCi=2×10^6 dpm) was applied once by a micropipette to each eye, i.e., eye drops. The eye drops were prepared to include 2.7 microliter of the ^14C-NAP stock in 400 microliter saline (0.9% NaCl). 10 microliters of this solution were counted to yield 3×10^5 dpm. After application of the drug, eye lids were held gently closed for 10 seconds.
# The aqueous humor is the liquid that is found in-between the cornea and lens. Ten microliter samples of aqueous humor were taken from the rabbits' eyes using a tuberculin syringe with a 30 gauge needle.
# The vitreous humor is found between the retina and the lens. Vitreous samples were obtained through the pars plana with a 25 gauge needle attached to a Tuberculin syringe. Ten microliter samples of vitreous humor were taken from each eye at designated times as outlined in the attached graphs up to 130 minutes after the initial eye drop application Systemic samples were taken from blood. For results see, e.g., FIGS. 4-6.
# The animals were anesthetized for the duration of the […] to avoid animal suffering. A boost of anesthetics was injected about ninety minutes after the initiation of the experiment.
# [3] = tested on: cells of the central nervous system (CNS); conditions: cell cultures; cited from earlier work
# [4] = tested on: Alzheimer's disease pathology; conditions: in vivo; cited from earlier work
# normal aging rats = conditions: intranasal administration; cited from earlier work
# ischemic injury = conditions: after ischemic injury; cited from earlier work
# closed head injury = conditions: mice; cited from earlier work
# fetal alcohol syndrome = conditions: in vivo; cited from earlier work
# anxiety = conditions: long term nasal application; cited from earlier work
# [5] = tested on: neurons of the central nervous system; conditions: in-vitro assays and in vivo disease models; cited from earlier work
compound,measurement,setting,value
"CC[C@H](C)[C@H](NC(=O)[C@H](CO)NC(=O)[C@@H](NC(=O)[C@@H]1CCCN1C(=O)[C@H](C)NC(=O)[C@@H](N)CC(N)=O)C(C)C)C(=O)N1CCC[C@H]1C(=O)N[C@@H](CCC(N)=O)C(=O)O [NAP, Asn-Ala-Pro-Val-Ser-Ile-Pro-Gln]",neuroprotective effect against laser-induced retinal damage,"[1]; intravitreal NAP 5 μl of 2.5 pg/μl, 3 days after the laser session",significant neuroprotective effect
same,neuroprotective effect against laser-induced retinal damage,"[1]; intravitreal NAP, 20 and 60 days after the laser session",not after 20 and 60 days
same,mean lesion diameter,"[1]; intravitreal NAP, 3 days after the laser injury",reduced
same,mean lesion diameter,"[1]; intravitreal NAP, after 20 days, vs control groups",greater than in control groups
same,photoreceptor loss (morphological evaluation of the lesions),"[1]; systemic intravenous NAP 60 μg per animal immediately after laser, 3 and 20 days after injury, vs saline control",attenuation
same,lesion diameter (morphological evaluation of the lesions),"[1]; systemic intravenous NAP 60 μg per animal, 3 and 20 days after injury, vs saline control",attenuation
same,"number of cells lost, whole and central areas of lesion","[1]; systemic intravenous NAP, 3, 20 and 60 days after injury",reduced
same,diameter of the lesion,"[1]; systemic intravenous NAP, 20 and 60 days after the injury",significant ameliorative effects (P<0.01)
same,neuroprotective effect (photoreceptor loss and lesion diameter),"[1]; systemic intravenous NAP, 60 days after the laser session","also manifested, although to a lesser extent"
same,significance of reduction in number of cells lost,"[1]; systemic intravenous NAP, sixty days after photocoagulation only",statistically significant (P<0.01)
same,maximal incorporation into vitreous samples,[2],60 dpm/10 microliters
same,peak of radioactive incorporation into the aqueous humor,[2],150 dpm/10 microliter
same,radioactivity at the aqueous humor at the 10 minute point,[2],~60 dpm/10 microliters
same,systemic exposure (blood radioactivity),[2],1-12 dpm
same,time of maximal incorporation into vitreous samples,[2],10 min
same,time of peak radioactive incorporation into the aqueous humor,[2],50 min
same,time the aqueous humor peak was maintained,[2],70 min
same,concentration showing neuroprotective activity,[3],femtomolar concentrations
same,effect in Alzheimer's disease pathology models,[4],protective
same,performance in the Morris water maze,normal aging rats,improved performance
same,infarct volume,ischemic injury,reduced
same,motor function deficits,ischemic injury,reduced
same,damage caused by closed head injury,closed head injury,reducing damage
same,fetal demise,fetal alcohol syndrome,reducing
same,growth restrictions,fetal alcohol syndrome,reducing
same,anxiety,anxiety,decreased anxiety
SALLRSIPA,survival of neurons in response to various insults,[5],keep neurons of the central nervous system alive
